This passage reports TGI results from PubChem BioAssay (NCI).

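Test compounds were applied to cells in 96-well plates for 48 hours at 5 doses. TGI is the concentration that stops growth completely.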 A value given as a limit tells only on which side of the number the result lay.

Some test systems named below: HCT-116 colon; SR leukemia; SW-620 colon; HOP-62 NSCLC; MALME-3M melanoma; LOX IMVI melanoma; M14 melanoma; RXF 393 renal; NCI-H522 lung; IGROV1 ovarian; MCF7 breast; MDA-MB-435; CAKI-1 renal; NCI/ADR-RES ovarian.
Assay in all cases: growth of human tumour cells (NCI), 48 h

In the case of `O=C(CSc1nnc(-c2ccc(N=Cc3ccc(Cl)cc3)cc2)o1)Nc1ccccc1[N+](=O)[O-]`, the TGI in the experiment on HCT-116 colon, with SR leukemia, in the experiment on SW-620 colon, with HOP-62 NSCLC, in the experiment with MALME-3M melanoma and with LOX IMVI melanoma was greater than 100 µM in each case. In addition, the TGI with M14 melanoma, in the experiment on RXF 393 renal and with NCI-H522 lung was greater than 100 µM in each case.

Take `COC1(OC)c2no[n+]([O-])c2CCC1O` (configuration not stated): the TGI in the experiment with IGROV1 ovarian, with MCF7 breast, in the experiment with HCT-116 colon, in the experiment with SR leukemia, in the experiment on MDA-MB-435 and with CAKI-1 renal was greater than 100 µM throughout. Moreover, the TGI in the experiment on SW-620 colon, in the experiment on HOP-62 NSCLC, in the experiment with MALME-3M melanoma, with LOX IMVI melanoma, in the experiment with M14 melanoma and in the experiment on RXF 393 renal was greater than 100 µM throughout. Moreover, the TGI with NCI/ADR-RES ovarian and in the experiment on NCI-H522 lung was greater than 100 µM throughout.

Turning to `O=C(c1cccs1)N(C(=S)N1CCN(c2ccccn2)CC1)c1ccccc1`, the TGI in the experiment on IGROV1 ovarian, with HCT-116 colon, in the experiment on SR leukemia, in the experiment on CAKI-1 renal, in the experiment with SW-620 colon and in the experiment with HOP-62 NSCLC was greater than 100 µM each time. The TGI in the experiment with MALME-3M melanoma, with LOX IMVI melanoma, in the experiment on M14 melanoma, in the experiment on RXF 393 renal and in the experiment on NCI-H522 lung was greater than 100 µM each time.

Turning to `NC(=O)N/N=C(\CC1OC(=O)c2ccccc21)c1ccco1` (configuration not stated), the TGI in the experiment on IGROV1 ovarian, in the experiment on HCT-116 colon, with CAKI-1 renal, in the experiment on SW-620 colon, in the experiment with MALME-3M melanoma and in the experiment with LOX IMVI melanoma was greater than 100 µM throughout. The TGI in the experiment on M14 melanoma, with RXF 393 renal and in the experiment on NCI-H522 lung was greater than 100 µM throughout.

Regarding `O=C1/C(=C/c2ccccc2O)N=C(c2ccccc2)N1C1Nc2cc3c(cc2S1)NC(N1C(=O)/C(=C/c2ccccc2O)N=C1c1ccccc1)S3` (configuration not stated), the TGI in the experiment with IGROV1 ovarian, in the experiment on MCF7 breast, in the experiment on HCT-116 colon, in the experiment on SR leukemia, with MDA-MB-435 and in the experiment on CAKI-1 renal was greater than 100 µM throughout. The TGI with SW-620 colon is greater than 100 µM; in the experiment on HOP-62 NSCLC, greater than 100 µM; in the experiment with LOX IMVI melanoma, greater than 100 µM; in the experiment with M14 melanoma, greater than 100 µM; with RXF 393 renal it was 70 µM; in the experiment on NCI/ADR-RES ovarian it was greater than 100 µM. In addition, the TGI in the experiment on NCI-H522 lung is greater than 100 µM.

Consider `COc1cc(O)c2c(=O)cc(-c3ccc(O)cc3O)oc2c1CC=C(C)C`, for which the TGI in the experiment on IGROV1 ovarian is 39.6 µM; in the experiment with MCF7 breast, 75.7 µM; in the experiment on HCT-116 colon, 32.4 µM; in the experiment with SR leukemia, 26.3 µM; with MDA-MB-435, greater than 100 µM; in the experiment on CAKI-1 renal, 32.5 µM. Besides, the TGI is greater than 100 µM in the experiment with SW-620 colon; 33 µM in the experiment with MALME-3M melanoma; 28.3 µM in the experiment on LOX IMVI melanoma; 30.2 µM in the experiment on M14 melanoma; 19.6 µM in the experiment on RXF 393 renal; greater than 100 µM in the experiment on NCI/ADR-RES ovarian. In the experiment on NCI-H522 lung, this compound yielded a TGI of 33.6 µM.

As to `C=Cc1ccc(C)[n+](C[Si](C)(C)O[Si](C)(C)C)c1`, the TGI with IGROV1 ovarian, in the experiment on HCT-116 colon, in the experiment with SR leukemia, with CAKI-1 renal, with SW-620 colon and in the experiment on HOP-62 NSCLC was greater than 100 µM throughout. Moreover, the TGI in the experiment on MALME-3M melanoma, in the experiment with LOX IMVI melanoma, with M14 melanoma and in the experiment on NCI-H522 lung was greater than 100 µM throughout.

As for `C/C(=N\NS(=O)(=O)c1ccc(C)cc1)C(CN1CCCCC1)C(c1ccccc1)c1c(O)c2ccccc2oc1=O` (configuration not stated), the TGI with IGROV1 ovarian, in the experiment with HCT-116 colon, with SR leukemia, with CAKI-1 renal, in the experiment with SW-620 colon and in the experiment on HOP-62 NSCLC was greater than 100 µM in each case. The TGI with MALME-3M melanoma, in the experiment on LOX IMVI melanoma, in the experiment with M14 melanoma, in the experiment with RXF 393 renal and in the experiment on NCI-H522 lung was greater than 100 µM each time.

In the case of `CNS(=O)(=O)NN(C)S(=O)(=O)c1ccccc1`, the TGI in the experiment with IGROV1 ovarian, in the experiment on HCT-116 colon, in the experiment on SR leukemia, in the experiment on CAKI-1 renal, in the experiment with SW-620 colon and in the experiment with HOP-62 NSCLC was greater than 100 µM in each case. Also, the TGI in the experiment on MALME-3M melanoma, in the experiment with LOX IMVI melanoma, in the experiment with M14 melanoma, in the experiment on RXF 393 renal and in the experiment on NCI-H522 lung was greater than 100 µM throughout.

For the compound `COc1cc2c(oc(=O)c3c4oc([Si](C)(C)C)cc4cc(OC)c23)c2cccc(OCc3ccccc3)c12`, the TGI in the experiment on IGROV1 ovarian is greater than 100 µM; in the experiment with HCT-116 colon, greater than 100 µM; with SR leukemia, greater than 100 µM; in the experiment with CAKI-1 renal, 41.2 µM; with SW-620 colon, greater than 100 µM; in the experiment with HOP-62 NSCLC, 47.6 µM. For the same compound, the TGI in the experiment with MALME-3M melanoma was greater than 71.5 µM; in the experiment with LOX IMVI melanoma, greater than 100 µM; in the experiment with M14 melanoma it was 61.3 µM; in the experiment on RXF 393 renal, greater than 48.2 µM; in the experiment on NCI-H522 lung, greater than 100 µM.

Take `CC(=O)OCC1=C(CCC#N)N2C(=O)C(NC(=O)Cc3cccs3)C2S(=O)C1` (configuration not stated): the TGI in the experiment on IGROV1 ovarian, in the experiment on HCT-116 colon, in the experiment on SR leukemia, in the experiment on CAKI-1 renal, with SW-620 colon and in the experiment with HOP-62 NSCLC was greater than 100 µM throughout. In addition, the TGI with MALME-3M melanoma, with LOX IMVI melanoma, with M14 melanoma, in the experiment with RXF 393 renal and with NCI-H522 lung was greater than 100 µM throughout.

In the case of `O=c1[nH]c2cc(Cl)ccc2nc1/C(=N\O)C(O)c1cccc([N+](=O)[O-])c1` (configuration not stated), the TGI with IGROV1 ovarian, with HCT-116 colon, in the experiment on SW-620 colon, with HOP-62 NSCLC, in the experiment with MALME-3M melanoma and with LOX IMVI melanoma was greater than 100 µM in each case. In addition, the TGI with M14 melanoma, with RXF 393 renal and in the experiment on NCI-H522 lung was greater than 100 µM each time.
